According to the NIST ThermoML archive (doi:10.1016/j.fluid.2016.12.025):
Numbers after ± are expanded uncertainties.

Legend:
[1] = refractive index (Na D-line) (dimensionless); xn = mol fraction of the nth substance listed; details: 298.2 K, 101 kPa, Liquid, Standard Abbe refractometry
[2] = xn = mol fraction of the nth substance listed; details: 298.2 K, 101 kPa, Liquid, Vibrating tube method
[3] = 298.2 K; 101.33 kPa; Liquid; Vibrating tube method
[4] = refractive index (Na D-line) (dimensionless); details: 298.2 K; 101.33 kPa; Liquid; Standard Abbe refractometry

CCCCCCO [hexan-1-ol] + CCCCO
Details	mass density, [2] [kg/m3]	refractive index, [1]
x2 = 0.0543	815.53 ± 0.16	1.4148 ± 0.0007
x2 = 0.099	815.22 ± 0.16	1.4142 ± 0.0007
x2 = 0.2042	814.42 ± 0.16	1.4126 ± 0.0007
x2 = 0.2993	813.64 ± 0.16	1.4111 ± 0.0007
x2 = 0.4052	812.7 ± 0.16	1.4094 ± 0.0007
x2 = 0.4994	811.8 ± 0.16	1.4078 ± 0.0007
x2 = 0.5938	810.85 ± 0.16	1.406 ± 0.0007
x2 = 0.7005	809.72 ± 0.16	1.4038 ± 0.0007
x2 = 0.8004	808.58 ± 0.16	1.4017 ± 0.0007
x2 = 0.9003	807.35 ± 0.16	1.3997 ± 0.0007
x2 = 0.9499	806.7 ± 0.16	1.3985 ± 0.0007

CCCCCCO [hexan-1-ol]
Details	mass density [kg/m3]	refractive index
[3]	815.88 ± 0.16	–
[4]	–	1.4161 ± 0.0004

CC(C)CCO [3-methylbutan-1-ol] + CCCCCCO
Details	mass density, [2] [kg/m3]	refractive index, [1]
x1 = 0.0496	815.43 ± 0.16	1.4154 ± 0.0007
x1 = 0.0997	815.12 ± 0.16	1.4149 ± 0.0007
x1 = 0.2005	814.49 ± 0.16	1.414 ± 0.0007
x1 = 0.3003	813.86 ± 0.16	1.4131 ± 0.0007
x1 = 0.3986	813.22 ± 0.16	1.4121 ± 0.0007
x1 = 0.4998	812.55 ± 0.16	1.4111 ± 0.0007
x1 = 0.6001	811.87 ± 0.16	1.4101 ± 0.0007
x1 = 0.7002	811.17 ± 0.16	1.4091 ± 0.0007
x1 = 0.8	810.46 ± 0.16	1.4081 ± 0.0007
x1 = 0.8998	809.73 ± 0.16	1.4069 ± 0.0007
x1 = 0.9504	809.35 ± 0.16	1.4064 ± 0.0007

CCCCOC(C)=O [butyl ethanoate] + CCCCCCO
Details	mass density, [2] [kg/m3]	refractive index, [1]
x1 = 0.0503	818.79 ± 0.17	1.4144 ± 0.0007
x1 = 0.1001	821.75 ± 0.17	1.4131 ± 0.0007
x1 = 0.2012	827.7 ± 0.17	1.4104 ± 0.0007
x1 = 0.3007	833.61 ± 0.17	1.4078 ± 0.0007
x1 = 0.4001	839.54 ± 0.17	1.4053 ± 0.0007
x1 = 0.4999	845.54 ± 0.17	1.4029 ± 0.0007
x1 = 0.6004	851.63 ± 0.16	1.4005 ± 0.0007
x1 = 0.6991	857.64 ± 0.16	1.3982 ± 0.0007
x1 = 0.8003	863.85 ± 0.16	1.396 ± 0.0007
x1 = 0.8953	869.76 ± 0.16	1.3939 ± 0.0007
x1 = 0.9452	872.86 ± 0.16	1.3929 ± 0.0007

CC(C)CCO [3-methylbutan-1-ol] + CCCCOC(C)=O
Details	mass density, [2] [kg/m3]	refractive index, [1]
x2 = 0.0497	812.53 ± 0.18	1.4049 ± 0.0007
x2 = 0.104	816.52 ± 0.18	1.4039 ± 0.0007
x2 = 0.1998	823.52 ± 0.17	1.4021 ± 0.0007
x2 = 0.2999	830.68 ± 0.17	1.4005 ± 0.0007
x2 = 0.3999	837.66 ± 0.17	1.399 ± 0.0007
x2 = 0.5001	844.46 ± 0.17	1.3976 ± 0.0007
x2 = 0.6006	851.08 ± 0.17	1.3962 ± 0.0007
x2 = 0.7	857.56 ± 0.16	1.395 ± 0.0007
x2 = 0.8003	863.93 ± 0.16	1.3939 ± 0.0007
x2 = 0.9005	870.23 ± 0.16	1.3928 ± 0.0007
x2 = 0.9466	873.08 ± 0.16	1.3923 ± 0.0007

CCCCOC(C)=O [butyl ethanoate]
Details	mass density [kg/m3]	refractive index
[3]	876.26 ± 0.14	–
[4]	–	1.3918 ± 0.0004

CCCCO [butan-1-ol]
Details	mass density [kg/m3]	refractive index
[3]	806.01 ± 0.16	–
[4]	–	1.3973 ± 0.0004

CC(C)CCO [3-methylbutan-1-ol] + CCCCO
Details	mass density, [2] [kg/m3]	refractive index, [1]
x2 = 0.0498	808.87 ± 0.16	1.4056 ± 0.0007
x2 = 0.0999	808.78 ± 0.16	1.4053 ± 0.0007
x2 = 0.1999	808.58 ± 0.16	1.4045 ± 0.0007
x2 = 0.3	808.35 ± 0.16	1.4037 ± 0.0007
x2 = 0.4	808.09 ± 0.16	1.4029 ± 0.0007
x2 = 0.4999	807.81 ± 0.16	1.402 ± 0.0007
x2 = 0.6016	807.5 ± 0.16	1.4009 ± 0.0007
x2 = 0.7015	807.16 ± 0.16	1.3998 ± 0.0007
x2 = 0.7999	806.8 ± 0.16	1.3988 ± 0.0007
x2 = 0.9007	806.41 ± 0.16	1.3981 ± 0.0007
x2 = 0.9506	806.21 ± 0.16	1.3978 ± 0.0007

CC(C)CCO [3-methylbutan-1-ol]
Details	mass density [kg/m3]	refractive index
[3]	808.94 ± 0.16	–
[4]	–	1.4061 ± 0.0004
